Data published in patent publication US7285618B1, “Polypeptides having neutrophil stimulating activity” (Japan Tobacco Inc., priority 2000, dated 2007).
Like-named read-outs stand apart in the source and are kept apart here. Where no end group is shown, it is not given here.

Columns and labels:
[1] = test system: monocyte and lymphocyte mixed cells; test: β-HA secretion from monocyte and lymphocyte mixed cells; type: cell-based, human
human neutrophils = test: β-HA secretion from human neutrophils; type: cell-based; details: for β-HA secretion from neutrophil cells (%/total): human neutrophils; for secretion of β-HA from human neutrophils: stimulation with 10 μM
Experimental: b. Preparation of Human Leukocytes
Thirty milliliters of human peripheral blood (containing 500 units of heparin sodium) was plated on 5 ml of Lymphocepal I in each of 4 centrifugal tubes and spun down (400 g, 30 min) at room temperature. After spinning, the monocytes and lymphocytes forming a turbid layer at the interface between the plasma and Lymphocepal I were carefully taken to be removed. […] The Percoll layer containing neutrophils was carefully taken and washed with physiological saline. Then, it was replaced by a 0.2% NaCl solution and about 30 seconds later, an equal amount of 1.6% NaCl aqueous solution was added; this procedure was repeated twice, whereby the left erythrocytes were lysed and neutrophils were isolated.
The purities of these monocyte-lymphocyte mixed cells and neutrophils were assayed by analysis with a flow cytometer. Propidium iodide was added to the cell suspension at a final concentration of 100 ng/ml in order to stain dead cells. Using a flow cytometer, forward scatter intensity and side scatter intensity were measured on a linear scale only for the negative cells (living cells) in the cell suspension for the propidium iodide-staining. The results were processed by CellQuest software and represented as a dot plot of forward scatter intensity (X-axis) and side scatter intensity (Y-axis). The purify of monocycle-lymphocyte mixed cells were 84% and that of the neutrophils were 83%. […]
c. Stimulation of the Cell […]
d. Measuring β-HA Enzyme Activity
The amount of β-HA secreted into the reaction supernatant was determined by measuring the absorbance at 415 nm of p-nitrophenol that was generated by an enzymatic reaction involving p-nitrophenyl N-acetyl-β-D-glucosaminide as a substrate. To be specific, 90 μl of the reaction supernatant was transferred to a 96-well Immuno plate (Nunc) and 60 μl of a substrate solution (10 mM p-nitrophenyl N-acetyl-β-D-glucosaminide/40 mM citrate, 70 mM Na2HPO4, pH 4.5) was added to initiate an enzymatic reaction. Following a 1-hr reaction at 37° C., 100 μl of a reaction quencher (400 mM glycine, pH 10.7) was added to stop the reaction and the absorbance at 415 nm was measured. As a control, cells were treated with Triton X-100 at a final concentration of 0.05% and the amount of β-HA in the supernatant was measured. As another control, the amount of β-HA secreted from cells upon stimulation with fMLP at a final concentration of 10 μM was measured.

HL60 cells = type: cell-based, human
[2] = test system: differentiated HL60 cells
Experimental: (§1) The differentiated HL60 cells and human leukocyte cells were washed three times with ice-cooled 0.1% BSA containing Hepes buffered Hank's solution (HBHS; 10 mM Hepes, 136.9 mM NaCl, 5.4 mM KCl, 1.2 mM CaCl2, 0.44 mM KH2PO4, 0.49 mM MgCl2, 0.41 mM MgSO4, 0.34 mM Na2HPO4, 5.5 mM glucose, 4.2 mM NaHCO3, pH 7.4). A cell suspension was prepared for each cell type at 5.5×10^6 cells/ml. Cytochalasin B and DNase I were then added to each cell suspension at a final concentration of 5 μg/ml. Ninety μl of each cell suspension was then transferred to an ice-cooled tube (5.0×10^5 cells/tube) and incubated at 37° C. for 10 minute. To each tube, either one of the fractions of polypeptide (or extract) in solution (10 μl) was added and incubated at 37° C. for 10 minutes to stimulate the cells. Immediately after the treatment, 200 μl of ice-cooled reaction quenching buffer (25 mM Tris, 123 mM NaCl, 2.7 mM KCl, pH 7.4) was added to the cell suspensions to stop the stimulation. Thereafter, the tubes were spun down at 4° C. for 60 seconds to precipitate the cell pellets and the β-HA activity and the lactate dehydrogenase (LDH) activity in the supernatant were measured.
(§2) The amount of LDH secreted into the reaction mixture was determined by measuring the absorbance (340 nm) of NADH generated by reduction of that NAD involves dehydrogenation of lactate. Reaction was initiated by adding a 400 μl of a substrate-buffer solution (125 mM 2-amino-2-methyl-1-propanol, 125 mM lithium lactate, 6.25 mM NAD, pH 9.5) to a 100 μl of the reaction supernatant. Following a 1-hr incubation at 37° C., the mixture was quenched in ice water to stop the reaction and the absorbance at 340 nm was measured.
(§3) The LDH enzyme activity secreted in the reaction mixture was expressed as the percentage of the total enzyme activity in cells (%/total) which was the enzyme activity of LDH released upon disruption of the cells with 0.05% Triton X-100.

G protein (Gi) = test: GTPase activity of purified Gi reconstituted on a phospholipid membrane; type: biochemical, rabbit; details: 3 μM
Description: G protein (Gi), which is present in neutrophils and involved in […] of fMLP, was extracted from the rabbit liver and purified (J. Biol. Chem. 267, 16237-16243, 1992). The purified Gi was reconstituted on a phospholipid membrane, and it was challenged by fCyt b (1-15) or COSP-1. We measured GTPase activity for these stimulations.

[3] = test system: differentiated HL60 cells; test: LDH leakage from HL60 cells
Experimental: as §1, §2, §3

fMLP receptor = target: T1, fMLP receptor (Homo sapiens, UniProt P21462); test: [3H]fMLP binding to the fMLP receptor on differentiated HL60 cells; details: [3H]fMLP 50 nM, 22° C., 60 minutes; COSP-1 up to 10 μM
T1 construct: fMLP receptors are expressed on the surfaces of the cells as they differentiate into neutrophil-like cells; endogenous in cells; host or cells: HL60 cells differentiated with db-cAMP (whole cells)
T1 sequence (P21462 1-350): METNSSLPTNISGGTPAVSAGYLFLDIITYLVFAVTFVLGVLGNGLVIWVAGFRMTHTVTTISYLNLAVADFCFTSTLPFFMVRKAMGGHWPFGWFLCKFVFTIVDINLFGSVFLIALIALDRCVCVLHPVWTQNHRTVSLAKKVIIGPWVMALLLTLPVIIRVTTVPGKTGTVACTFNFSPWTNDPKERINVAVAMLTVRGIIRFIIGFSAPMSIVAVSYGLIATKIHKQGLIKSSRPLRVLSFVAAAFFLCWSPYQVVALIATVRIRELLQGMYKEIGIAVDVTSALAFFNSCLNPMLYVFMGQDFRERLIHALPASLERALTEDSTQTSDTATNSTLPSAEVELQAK
Experimental: The binding study of COSP-1 to the fMLP receptor was done using the differentiated HL60 cells. The differentiated HL60 cells were washed twice with HBHS. Then, the cells were suspended at 3.1×10^7 cells/ml and this suspension was transferred to tubes (2.5×10^6 cells/80 μl) and incubated at 22° C. for 10 minutes. Subsequently, various concentrations of COSP-1 or fMLP (10 μl) were added and incubated at 22° C. for 5 minutes. Thereafter, 10 μl of [^3H]fMLP (final concentration at 50 nM) was added and reaction was performed at 22° C. for 60 minutes. By adding 500 μl of ice-cooled PBS-BSA (10 mM phosphate, 120 mM NaCl, 0.5% BSA), the reaction was stopped. The treated cell suspension was then passed through a glass-fiber filter (Whatman GF/C) and the filter was washed three times with ice-cooled PBS-BSA (2 ml) to remove [^3H]fMLP not bound to the cells. The glass-fiber filter was dried and a scintillant was added to a solution for radioactivity measurement.
The measurements of binding of the fMLP to the fMLP receptors were expressed as the percentage (%/total) for a maximum binding which was shown as the radioactivity of [^3H]fMLP having specific binding to the receptors in the absence of an unlabelled ligand.

| stimulation of the GTPase activity of Gi (G protein (Gi)) | LDH leakage out of the cells ([3]; differentiated HL60 cells, Example 4) | Compound | β-HA secretion from monocyte and lymphocyte mixed cells (%/total) [1] | secretion of β-HA in the monocyte and lymphocyte mixed cells ([1]; stimulation with 10 μM) | β-HA secretion from neutrophil cells (%/total) (human neutrophils) | secretion of β-HA from human neutrophils (human neutrophils) | β-HA secretion to the undifferentiated HL60 cells (HL60 cells) | LDH leakage from the HL60 cells [2] | LDH leakage from the HL60 cells ([3]; Example 6) | inhibition of the specific binding between [3H]fMLP and fMLP receptors (fMLP receptor) |
| --- | --- | --- | --- | --- | --- | --- | --- | --- | --- | --- |
|  |  | CSCC[C@H](NC=O)C(=O)N[C@@H](CC(C)C)C(=O)N[C@@H](Cc1ccccc1)C(=O)O [fMLP, formyl methionyl-leucyl-phenylalanine, reference compound] | 21.8 ± 5.3 %/total | 21.8±5.3% | 68.3 %/total | 68.3% | Neither COSP-1 nor fMLP caused the β-HA secretion | neither of COSP-1 and fMLP caused LDH leakage |  |  |
| about 6 fold | no LDH was found to leak out | LSFLIPAGWVLSHLDHYKRSSAA-OH [COSP-1] |  |  | 40.5 %/total | 40.5% | Neither COSP-1 nor fMLP caused the β-HA secretion |  | neither of COSP-1 and fMLP caused LDH leakage | not by COSP-1 even when its final concentration was reacted to 10 μM |
